Reference: ChEMBL document CHEMBL1140856, “Substituted 1,2,3,4-tetrahydroquinolin-6-yloxypropanes as beta3-adrenergic receptor agonists: design, synthesis, biological evaluation and pharmacophore modeling” (Bioorg Med Chem, 2009)
pEC50, pIC50: −log10 of the molar value.

What was measured:
[1] = molecular target: Beta-2 adrenergic receptor (Homo sapiens, UniProt P07550); experiment: Agonist activity at adrenergic beta-2 receptor; format: functional
[2] = molecular target: T1, Beta-3 adrenergic receptor (Homo sapiens, UniProt P13945); experiment: Displacement of [125I]iodocyanopindolol from human adrenergic beta-3 receptor
Target sequence in this assay (P13945 whole entry): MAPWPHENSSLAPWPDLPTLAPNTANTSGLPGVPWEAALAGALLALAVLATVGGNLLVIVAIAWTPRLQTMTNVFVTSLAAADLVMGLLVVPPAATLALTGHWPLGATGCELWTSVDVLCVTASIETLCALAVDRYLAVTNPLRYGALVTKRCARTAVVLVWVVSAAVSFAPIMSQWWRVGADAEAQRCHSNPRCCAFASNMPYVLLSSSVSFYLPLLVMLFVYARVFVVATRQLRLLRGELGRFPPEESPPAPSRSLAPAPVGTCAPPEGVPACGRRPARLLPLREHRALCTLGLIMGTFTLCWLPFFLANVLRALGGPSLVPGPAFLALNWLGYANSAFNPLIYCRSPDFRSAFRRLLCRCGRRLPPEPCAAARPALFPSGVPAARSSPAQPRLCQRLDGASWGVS

[3] = molecular target: T1, Beta-3 adrenergic receptor; experiment: Displacement of [125I]iodocyanopindolol from human adrenergic beta-3 receptor at 1 uM
Target sequence in this assay (P13945 whole entry, looked up): as the sequence (P13945 whole entry) above

[4] = molecular target: T1, Beta-3 adrenergic receptor; experiment: Displacement of [125I]iodocyanopindolol from human adrenergic beta-3 receptor at 10 uM
Target sequence in this assay (P13945 whole entry, looked up): as the sequence (P13945 whole entry) above

[5] = molecular target: Beta-1 adrenergic receptor (Homo sapiens, UniProt P08588); experiment: Agonist activity at adrenergic beta-1 receptor; format: functional
Chain of Beta-1 adrenergic receptor (P08588 whole entry): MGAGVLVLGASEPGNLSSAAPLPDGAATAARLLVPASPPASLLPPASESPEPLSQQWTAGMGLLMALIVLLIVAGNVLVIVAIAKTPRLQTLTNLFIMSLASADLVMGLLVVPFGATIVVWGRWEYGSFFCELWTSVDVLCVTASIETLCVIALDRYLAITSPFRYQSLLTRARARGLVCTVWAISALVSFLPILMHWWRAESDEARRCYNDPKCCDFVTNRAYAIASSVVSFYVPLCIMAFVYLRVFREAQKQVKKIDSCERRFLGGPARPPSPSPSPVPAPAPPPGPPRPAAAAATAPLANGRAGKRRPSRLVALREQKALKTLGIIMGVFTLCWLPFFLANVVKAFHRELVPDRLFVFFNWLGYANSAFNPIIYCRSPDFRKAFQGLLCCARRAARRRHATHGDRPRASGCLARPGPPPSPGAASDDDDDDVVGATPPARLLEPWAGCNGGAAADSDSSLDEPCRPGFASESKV

[6] = Selectivity ratio of EC50 for adrenergic beta-2 receptor to EC50 for human adrenergic beta3 receptor
[7] = Selectivity ratio of EC50 for adrenergic beta-1 receptor to EC50 for human adrenergic beta-3 receptor
[8] = molecular target: T1, Beta-3 adrenergic receptor; experiment: Agonist activity at adrenergic beta-3 receptor in human SK-N-MC cells; format: functional, cell-based
Target sequence in this assay (P13945 whole entry): as the sequence (P13945 whole entry) above

Chain of Beta-2 adrenergic receptor (P07550 whole entry): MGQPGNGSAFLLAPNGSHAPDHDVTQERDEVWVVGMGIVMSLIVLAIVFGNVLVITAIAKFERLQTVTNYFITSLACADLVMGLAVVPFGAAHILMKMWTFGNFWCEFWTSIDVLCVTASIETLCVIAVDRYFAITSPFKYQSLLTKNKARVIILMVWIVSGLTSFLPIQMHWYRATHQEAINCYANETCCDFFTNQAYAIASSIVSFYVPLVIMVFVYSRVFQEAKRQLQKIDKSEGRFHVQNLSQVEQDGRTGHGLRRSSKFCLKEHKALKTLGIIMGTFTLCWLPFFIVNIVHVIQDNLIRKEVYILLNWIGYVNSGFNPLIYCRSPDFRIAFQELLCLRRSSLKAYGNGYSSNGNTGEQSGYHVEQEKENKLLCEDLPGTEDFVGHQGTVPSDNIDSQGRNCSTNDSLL

| SMILES | inhibition [3] | inhibition [4] | other results |
| --- | --- | --- | --- |
| CC(NCC(O)COc1ccc2c(c1)CCCN2Cc1ccccc1)c1ccccc1 (stereo not drawn) | 7.71% | 27.5% | – |
| CC(Cc1ccc(O)cc1)N1CCOC(c2ccccc2)C1 (stereo not drawn) | 0.34% | 0.24% | – |
| COc1ccc(CCNCC(O)COc2ccc3c(c2)CCCN3S(=O)(=O)c2ccccc2)cc1OC (stereo not drawn) | 26.5% | 38.9% | – |
| Cc1ccc(CCNCC(O)COc2ccc3c(c2)CCCN3Cc2ccccc2)cc1 (stereo not drawn) | 8.17% | 18.1% | – |
| CCCCN(CCCC)CC(O)COc1ccc2c(c1)CCCN2Cc1ccccc1 (stereo not drawn) | 4.09% | 14.7% | – |
| CCCNCCCOc1ccc2c(c1)CCCN2Cc1ccccc1 | 5.62% | 16.2% | – |
| COc1ccc(CCN(CC(O)COc2ccc3c(c2)CCCN3)C(=O)OC(C)(C)C)cc1OC (stereo not drawn) | 23.2% | 28.1% | – |
| COc1ccc(CCNCC(O)COc2ccc3c(c2)CCCN3)cc1OC (stereo not drawn) | 33.1% | 56.5% | – |
| CCOC(=O)COc1ccc(CC(C)N2CCOC(c3ccccc3)C2)cc1 (stereo not drawn) | – | -1.36% | – |
| COc1ccc(CCNCC(O)COc2ccc3c(c2)CCCN3Cc2ccccc2)cc1OC (stereo not drawn) | 72.8% | 90.6% | pIC50 [2]: 6.26 |
| OC(CNCc1ccccc1)COc1ccc2c(c1)CCCN2Cc1ccccc1 (stereo not drawn) | 1.81% | 19% | – |
| Clc1ccc(CCNCCCOc2ccc3c(c2)CCCN3Cc2ccccc2)cc1 | 42.9% | 58.7% | – |
| CC(Cc1ccc(OCC(=O)O)cc1)N1CCOC(c2ccccc2)C1 (stereo not drawn) | -9.63% | 9.42% | – |
| CCCNCC(O)COc1ccc2c(c1)CCCN2Cc1ccccc1 (stereo not drawn) | 19.2% | 66.3% | – |
| CC(C)NCC(O)COc1ccc2c(c1)CCCN2Cc1ccccc1 (stereo not drawn) | 59.7% | 83.2% | pEC50 [1]: 5.94; pIC50 [2]: 6.23; pEC50 [5]: 5.69; Ratio EC50 [6]: 1.31; Ratio EC50 [7]: 2.3; pEC50 [8]: 6.05 |
| COc1ccc(CCN(CC(O)COc2ccc3c(c2)CCCN3Cc2ccccc2)C(=O)OC(C)(C)C)cc1OC (stereo not drawn) | 37.8% | 46.7% | – |
| CCN(CC)CC(O)COc1ccc2c(c1)CCCN2Cc1ccccc1 (stereo not drawn) | 9.18% | 11.2% | – |
| CN(Cc1ccccc1)CC(O)COc1ccc2c(c1)CCCN2Cc1ccccc1 (stereo not drawn) | -4.54% | 2.54% | – |
| OC(CNCCc1ccc(Cl)cc1)COc1ccc2c(c1)CCCN2Cc1ccccc1 (stereo not drawn) | 55.8% | 63.1% | – |

The next lines start with results.

| inhibition [3] | inhibition [4] | SMILES | other results |
| --- | --- | --- | --- |
| 56.2% | 76.5% | COc1ccc(CCNCC(O)COc2ccc3c(c2)CCCN3Cc2ccccc2)cc1 (stereo not drawn) | pEC50 [1]: 5.23; pIC50 [2]: 5.93; pEC50 [5]: 5.14; Ratio EC50 [6]: 1.2; Ratio EC50 [7]: 1.47; pEC50 [8]: 5.31 |
| 5.5% | 20.4% | OC(COc1ccc2c(c1)CCCN2Cc1ccccc1)CN1CCN(c2ccccc2F)CC1 (stereo not drawn) | – |
| 6.08% | 4.13% | O=[N+]([O-])c1ccc(N2CCN(CC(O)COc3ccc4c(c3)CCCN4Cc3ccccc3)CC2)cc1 (stereo not drawn) | – |
| -5.28% | 18.1% | OC(COc1ccc2c(c1)CCCN2Cc1ccccc1)CN1CCN(Cc2ccc3c(c2)OCO3)CC1 (stereo not drawn) | – |
| -2.34% | 11.3% | OC(COc1ccc2c(c1)CCCN2Cc1ccccc1)CN1CCN(c2cccc(Cl)c2)CC1 (stereo not drawn) | – |
| 9.26% | 27.4% | COc1ccc(CNCC(O)COc2ccc3c(c2)CCCN3Cc2ccccc2)cc1 (stereo not drawn) | – |
| -1.79% | 12.8% | CC1CCN(CC(O)COc2ccc3c(c2)CCCN3Cc2ccccc2)CC1 (stereo not drawn) | – |
| 6.72% | 1.95% | COc1ccc(N2CCN(CCCOc3ccc4c(c3)CCCN4Cc3ccccc3)CC2)cc1 | – |
| 45.9% | 52.2% | OC(COc1ccc2c(c1)CCCN2Cc1ccccc1)CN1CCN(c2ccccc2)CC1 (stereo not drawn) | – |
| -3.71% | 0.18% | CN1CCN(CC(O)COc2ccc3c(c2)CCCN3Cc2ccccc2)CC1 (stereo not drawn) | – |
| 46.4% | 50.5% | OC(COc1ccc2c(c1)CCCN2Cc1ccccc1)CN1CCC(O)(c2ccccc2)CC1 (stereo not drawn) | – |
| 49.7% | 68.8% | OC(COc1ccc2c(c1)CCCN2Cc1ccccc1)CN1CCN(c2ccc(F)cc2)CC1 (stereo not drawn) | pIC50 [2]: 5.75 |
| -7.18% | 0.28% | OC(COc1ccc2c(c1)CCCN2Cc1ccccc1)CN1CCN(c2ccc(Cl)c(Cl)c2)CC1 (stereo not drawn) | – |
| -0.84% | 17.1% | OC(COc1ccc2c(c1)CCCN2Cc1ccccc1)CN1CCN(Cc2ccccc2)CC1 (stereo not drawn) | – |
| 5.32% | 12.7% | OC(COc1ccc2c(c1)CCCN2Cc1ccccc1)CN1CCN(c2ccccn2)CC1 (stereo not drawn) | – |
| 3.19% | 11.8% | Cc1ccc(N2CCN(CC(O)COc3ccc4c(c3)CCCN4Cc3ccccc3)C(C)C2)cc1 (stereo not drawn) | – |
| 3.61% | 0.08% | CC1CN(c2ccc(Cl)cc2)CCN1CC(O)COc1ccc2c(c1)CCCN2Cc1ccccc1 (stereo not drawn) | – |
| 12.2% | 14.5% | COc1ccccc1N1CCN(CC(O)COc2ccc3c(c2)CCCN3Cc2ccccc2)CC1 (stereo not drawn) | – |
| 4.27% | 31.4% | OC(COc1ccc2c(c1)CCCN2Cc1ccccc1)CN1CCCCC1 (stereo not drawn) | – |
| -2.05% | 23.5% | OC(COc1ccc2c(c1)CCCN2Cc1ccccc1)CN1CCC(Cc2ccccc2)CC1 (stereo not drawn) | – |
| 45.1% | 49.8% | COc1ccc(N2CCN(CC(O)COc3ccc4c(c3)CCCN4Cc3ccccc3)CC2)cc1 (stereo not drawn) | – |
